Laboratory results published in patent publication US11866458B2, “Panaxadiol glycoside derivative and preparation method and application thereof” (SUZHOU JI ER BIOLOGICAL MEDICINE CO., LTD., priority 2018, dated 2024).
Marks after values point to notes of the source that are not given here.

Assays:
[1] = test system: inflammatory cells in bronchoalveolar lavage fluid of mice; assay: Determination of inflammatory cells in bronchoalveolar lavage fluid of mice (OVA asthma model); format: in vivo, BALB/C mice; parameters: unit not given here
Procedure: 144 6-week-old BALB/C mice (18-20 g) were divided into 24 groups: control group, placebo group, dexamethasone group (3 mg/kg) and the drug groups. There were 6 in each group. The control group was given normal saline without any treatment. The other groups were sensitized by intraperitoneal injection of OVA 20 μg and aluminum hydroxide 200 μL PBC (2 mg, prepared into emulsion). […] On day 21, 22 and 23, the therapeutic agent (i.e. 3 mg/kg dexamethasone in the positive control group and oral administration in the drug group) was given orally. From day 17 to 23, PBS was given to the control group and placebo group respectively, PBS (without OVA) was given to the control group. On day 0 and day 14, the normal saline was nebulized for 30 minutes to remove the aluminum hydroxide on day 21, 22 and 23 See in Table 2.

[2] = test system: mouse asthma model induced by OVA; assay: Asthma induced by ovalbumin in Balb/c mice: IgE level in serum by ELISA; format: in vivo; details: oral
ICR mice [3] = assay: Blood glucose of caudal vein after 6 days of intragastric administration; details: for Blood glucose: fasted, caudal vein
Procedure: The mice were intragastric administration for 6 consecutive days, fasting was started at about 8:00 in the morning on the sixth day, and blood glucose in caudal vein was measured at about 4:00 in the next day.

ICR mice [4] = assay: Blood routine test after 6 days of intragastric administration; details: for WBC: 1 hour after last dose
Procedure: Mice were intragastric administration for 6 consecutive days, and sufficient blood samples were taken for blood routine test 1 hour after the last dose.

[5] = test system: COPD rats induced by smoke exposure; assay: COPD induced by smoke exposure in rats: lung function FEV0.2/FVC; format: in vivo, Wistar rats; details: for FEV2/FVC % (FEV0.2/FVC %, forced expiratory index within 200 ms): 180 days; for effect in COPD rats compared with inhaled budesonide: high dose group, oral
[6] = after inhalation; cited from earlier work
[7] = 3 mg/kg, oral (positive control)
[8] = 1.8 mg/kg, intragastric, 6 days
[9] = Table 1-1 (1st time), 20 mg/kg, 24 hours after last OVA stimulation
[10] = 225 mg/kg, intragastric, 6 days

SMILES	Acidic cells in bronchoalveolar lavage fluid ([1]; 2 mg/kg, oral)	Neutral cells in bronchoalveolar lavage fluid ([1]; 2 mg/kg, oral)	Total inflammatory cells in bronchoalveolar lavage fluid ([1]; 2 mg/kg, oral)	lymphocyte in bronchoalveolar lavage fluid ([1]; 2 mg/kg, oral)	Acidic cells in bronchoalveolar lavage fluid ([1]; 20 mg/kg, oral)	Neutral cells in bronchoalveolar lavage fluid ([1]; 20 mg/kg, oral)	Total inflammatory cells in bronchoalveolar lavage fluid ([1]; 20 mg/kg, oral)	lymphocyte in bronchoalveolar lavage fluid ([1]; 20 mg/kg, oral)	Acidic cells in bronchoalveolar lavage fluid ([1]; 200 mg/kg, oral)	Neutral cells in bronchoalveolar lavage fluid ([1]; 200 mg/kg, oral)	Total inflammatory cells in bronchoalveolar lavage fluid ([1]; 200 mg/kg, oral)	lymphocyte in bronchoalveolar lavage fluid ([1]; 200 mg/kg, oral)	Concentration of IgE in serum [2, 9]	Concentration of IgE in serum ([2]; Table 1-2 (2nd time), 15 mg/kg)	Concentration of IgE in serum ([2]; Table 1-2 (2nd time), 30 mg/kg)	Concentration of IgE in serum ([2]; Table 1-2 (2nd time), 60 mg/kg)	FEV2/FVC % (FEV0.2/FVC %, forced expiratory index within 200 ms) ([5]; 20 mg/kg oral)	FEV2/FVC % (FEV0.2/FVC %, forced expiratory index within 200 ms) ([5]; 40 mg/kg oral)	FEV2/FVC % (FEV0.2/FVC %, forced expiratory index within 200 ms) ([5]; 80 mg/kg oral)	effect in COPD rats compared with inhaled budesonide [5]	further results
CC(=O)OCC(=O)[C@@]1(O)[C@H](C)C[C@H]2[C@@H]3CCC4=CC(=O)C=C[C@]4(C)[C@@]3(F)[C@@H](O)C[C@@]21C [Dexamethasone acetate tablets, Dexamethasone acetate]																					Acidic cells in bronchoalveolar lavage fluid [1, 7]: 7.49 ± 5.25; Neutral cells in bronchoalveolar lavage fluid [1, 7]: 9.64 ± 5.16; Total inflammatory cells in bronchoalveolar lavage fluid [1, 7]: 36.12 ± 14.89; lymphocyte in bronchoalveolar lavage fluid [1, 7]: 8.46 ± 5.73; Concentration of IgE in serum ([2]; Table 1-1 (1st time), 0.6 mg/kg, 24 hours after last OVA stimulation): 1131.05 ± 211.85 ng/mL; Concentration of IgE in serum ([2]; Table 1-2 (2nd time), 0.6 mg/kg): 1367.07 ± 103.80 ng/mL; blood glucose in mice compared with blank control group (ICR mice [3]; 1.8 mg/kg): increase blood glucose; Blood glucose (ICR mice [3]; [8]): 5.78 ± 0.36 mmol/L; leukocyte count compared to blank control group (ICR mice [4]; 1.8 mg/kg): decreased significantly; lymphocyte percentage compared to blank control group (ICR mice [4]; 1.8 mg/kg): decreased significantly; monocyte percentage compared to blank control group (ICR mice [4]; 1.8 mg/kg): increased significantly; neutrophil percentage compared to blank control group (ICR mice [4]; 1.8 mg/kg): increased significantly; Ba % (ICR mice [4]; [8]): 0.04 ± 0.03%; Eo % (ICR mice [4]; [8]): 0.09 ± 0.02%; Ly % (ICR mice [4]; [8]): 42.59 ± 28.17 %; Mo % (ICR mice [4]; [8]): 12.08 ± 6.28 %; Ne % (ICR mice [4]; [8]): 45.17 ± 16.22 %; WBC (ICR mice [4]; [8]): 1.26 ± 0.49** 10^2/mm^3
CC(C)=CCC[C@](C)(O[C@H]1OC(CO)[C@@H](O)[C@H](O)C1O)C1CC[C@]2(C)C1C(=O)CC1[C@@]3(C)CC[C@H](O)C(C)(C)C3CC[C@]12C (stereo partly drawn) [ID, 3β-hydroxyl-20(S)—O-α-D-mannopyranosyl dammarane-24-ene-12-one]	34.15 ± 18.88	13.18 ± 7.76	46.39 ± 22.74	14.38 ± 8.71	15.17 ± 8.34	6.26 ± 4.73	29.46 ± 13.56	8.92 ± 6.89	6.79 ± 3.87	4.39 ± 3.13	13.81 ± 6.76	4.16 ± 317	1336.96 ± 211.85 ng/mL	1571.67 ± 134.04 ng/mL	1427.83 ± 164.28 ng/mL	1264.95 ± 127.60 ng/mL	66.28 ± 13.54%	75.23 ± 10.71 %	86.34 ± 8.60 %	superior to budesonide	content of IgE in mice serum (conclusion in words) ([2]; model of mouse asthma induced by OVA, samples): significantly reduce; therapeutic effect on bronchial asthma induced by OVA ([2]; mouse): obvious therapeutic effect
CC(C)=CCC[C@](C)(O[C@@H]1O[C@H](CO)[C@@H](O)[C@H](O)[C@H]1O)[C@H]1CC[C@]2(C)[C@@H]1[C@H](O)C[C@@H]1[C@@]3(C)CC[C@H](O)C(C)(C)[C@@H]3CC[C@]12C [CK, ginsenoside compound K, reference compound]	32.47 ± 20.33	15.24 ± 7.94		16.81 ± 9.88	16.39 ± 9.67	8.78 ± 5.33	24.87 ± 20.58	10.15 ± 7.34	13.12 ± 7.38	4.32 ± 3.16	22.38 ± 12.69	7.42 ± 4.53	1701.85 ± 284.66 ng/mL	1921.25 ± 160.12 ng/mL	1676.69 ± 159.13 ng/mL	1501.85 ± 110.68 ng/mL	61.29 ± 11.76%	70.89 ± 10.56 %	80.24 ± 13.73 %	superior to budesonide	blood glucose related changes (ICR mice [3]; [10]): no blood glucose related changes; Blood glucose (ICR mice [3]; [10]): 3.18 ± 0.28 mmol/L; Ba % (ICR mice [4]; [10]): 0.01 ± 0.02%; Eo % (ICR mice [4]; [10]): 0.75 ± 0.71%; Ly % (ICR mice [4]; [10]): 62.54 ± 30.29%; Mo % (ICR mice [4]; [10]): 6.01 ± 8.91%; Ne % (ICR mice [4]; [10]): 31.39 ± 2.72%; hematological related changes (ICR mice [4]; [10]): no hematological related changes; WBC (ICR mice [4]; [10]): 4.96 ± 2.14 10^2/mm^3
CC(C)C(=O)OCC(=O)[C@@]12O[C@H](C3CCCCC3)O[C@@H]1C[C@H]1[C@@H]3CCC4=CC(=O)C=C[C@]4(C)[C@H]3[C@@H](O)C[C@@]12C [ciclesonide]																					bioavailability in vivo [6]: less than 1%
CC(C)=CCC[C@](C)(O[C@@H]1OC(CO)[C@H](O)[C@H](O)C1O)C1CC[C@]2(C)C1C(=O)CC1[C@@]3(C)CC[C@H](O)C(C)(C)C3CC[C@]12C (stereo partly drawn) [IC, 3p-hydroxyl-20(S)—O-β-D-galactopyranosyl dammarane-24-ene-12-one]	31.51 ± 16.14	13.29 ± 7.12	50.77 ± 32.49	9.30 ± 6.85	18.44 ± 7.78	8.16 ± 5.03	32.95 ± 21.07	6.49 ± 5.28	8.72 ± 3.31	5.17 ± 3.19	18.25 ± 9.48	3.77 ± 2.81	975.82 ± 260.32 ng/mL	1908.70 ± 221.74 ng/mL	1738.93 ± 124.22 ng/mL	1575.92 ± 148.33 ng/mL	65.45 ± 14.17%	76.64 ± 7.98 %	83.15 ± 8.42 %	superior to budesonide	
